# Measured values as given in patent US10842845B2, “Oxytocin improves treatment of obstructive sleep apnea” (THE GEORGE WASHINGTON UNIVERSITY, priority 2014, dated 2020).
# “Also recorded” adds a separate entry of the source.
# Legend:
# [1] = biological target: T1, DREADDs receptors on PVN OXT neurons (Homo sapiens, UniProt P20309, A239G/Y149C); test: Telemetry of resting blood pressure and heart rate before and after CNO injection; assay type: in vivo, Sprague-Dawley rats
# T1 construct: mCherry (C); host or cells: PVN oxytocin neurons of Sprague-Dawley rats, in vivo, transduced with AAV2-hSyn-DIO-hM3D(Gq)-mCherry and rAAV1-OXT-Cre
# T1 sequence (P20309 whole entry Y149C/A239G, the tested form may be a part): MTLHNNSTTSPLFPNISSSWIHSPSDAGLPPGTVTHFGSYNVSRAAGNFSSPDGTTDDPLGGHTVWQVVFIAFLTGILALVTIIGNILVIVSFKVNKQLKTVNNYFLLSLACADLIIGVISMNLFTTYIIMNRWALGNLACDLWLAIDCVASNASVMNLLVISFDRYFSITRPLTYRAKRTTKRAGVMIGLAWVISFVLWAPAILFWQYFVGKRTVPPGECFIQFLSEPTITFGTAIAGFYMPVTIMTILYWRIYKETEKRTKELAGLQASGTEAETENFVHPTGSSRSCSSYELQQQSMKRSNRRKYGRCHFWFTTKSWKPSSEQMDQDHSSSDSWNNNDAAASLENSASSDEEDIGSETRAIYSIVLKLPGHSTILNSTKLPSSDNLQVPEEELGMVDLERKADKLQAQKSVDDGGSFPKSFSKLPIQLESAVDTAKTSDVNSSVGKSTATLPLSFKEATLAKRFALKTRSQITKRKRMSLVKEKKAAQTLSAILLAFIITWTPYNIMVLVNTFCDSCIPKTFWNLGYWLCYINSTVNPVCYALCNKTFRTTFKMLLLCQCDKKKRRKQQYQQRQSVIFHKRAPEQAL
# Description: (§1) To record blood pressure and heart rate, male Sprague-Dawley rats, 3-4 weeks of age, were anesthetized using isoflurane (2-4%) and a HD-XII pressure transmitter was implanted (Data Sciences International, St Paul, Minn., USA) with its cathether inserted into the abdominal aorta to record pressure and EKG leads were attached subcutaneously to obtain EKG recordings and heart rate. All rats with telemetry devices were allowed 7-14 days to recover from transmitter implantation surgery before any measurements were recorded. Blood pressure and heart rate were recorded via radio-frequency signals obtained through the Ponemah data acquisition system (Data Sciences International). Baseline recordings of blood pressure and heart rate were obtained for 3 days prior to CIH/H exposure. Prior to, and during, the 28 day CIH/H exposure period daily baseline recordings of blood pressure and heart rate were recorded.
# (§2) 1-2 weeks after telemetry implantation, DREADDs receptors on PVN OXT neurons were activated daily by intraperitoneal (IP) injection of clozapine-n-oxide (CNO, 1.0 mg/kg). To investigate the effects of CNO on resting BP and HR in both DREADDs-expressing and sham animals, 3 days prior to CIH/H exposure (control days) baseline BP and HR values were recorded for a 20 min period before CNO injection. Animals from each group then received an IP injection of CNO, BP and HR were recorded for 1 hr, and the animals then underwent exposure to air for 8 hr to achieve acclimation to the chambers. During the 21 days of CIH/H exposure, baseline recordings of BP and HR were obtained before CNO injection, recorded for 1 hr post CNO injection, and for the entire duration of OHM exposure.
# (§3) To examine the effects of CNO on and the chronic changes to mean arterial blood pressure (MAP) over the 21 days of OHM exposure, values were recorded before and after CNO injection on control days prior to CIH exposures, and days 1, 3, 6, 9, 12, 15, 18, and 21 of CIH/H. Changes within the DREADDs-expressing animals and the sham animals were statistically analyzed by one-way ANOVA with repeated-measures followed by Bonferroni's multiple comparison test. To examine the statistical changes in MAP between the two groups of animals, a two-way ANOVA with repeated-measures followed by Bonferroni's multiple comparison test was used. Data with p<0.05 were considered significant.
# CNO administration had no effect on BP represented as mean arterial pressure (MAP) and HR in sham animals without DREADDs expression (FIGS. 10A and 10B). However, CNO administration that activates DREADDs receptors in PVN OXT neurons decreased resting HR and BP throughout 21 days of CIH/H exposure, with significant decreases in MAP (104±2.6 mmHg before CNO to 93±1.7 mmHg after CNO; n=8; ^+p<0.0001; paired t test; FIG. 10A) and HR (416±7.1 beats/min before CNO to 362±10.5 beats/min after CNO; n=8; ^+p<0.01; paired t test; FIG. 10B).
# [2] = biological target: T1, DREADDs receptors on PVN OXT neurons; test: MAP over 21 days of CIH/H exposure with daily PVN OXT neuron activation (daily CNO); assay type: in vivo, Sprague-Dawley rats; details: n=8
# Description: as §1
# Animals were exposed to repetitive cycles of 3 minutes of mild H/H (6% O2+5% CO2+89%, N2) followed by 3 minutes of normoxia (21% O2+79% N2), repeated for 10 times per hour, 8 hr/day, for 3 or 4 weeks. The animals were exposed to CIH/H for 8 hours during light phase and to normal air during the remaining 16 hr. Unexposed animals that were exposed to normal air (21% O2+79% N2), were placed adjacent to the chambers during the exposure period to undergo similar handling, general lab conditions, and background noise as the CIH/H group.
# as §2
# as §3, with “To examine the statistical changes in MAP between the two groups of animals, a two-way ANOVA with repeated-measures followed by Bonferroni's multiple comparison test was used. Data with p<0.05 were considered significant.” left out
structure (smiles),measurement,setting,value
"C[N+]1([O-])CCN(C2=Nc3cc(Cl)ccc3Nc3ccccc32)CC1 [CNO, clozapine-n-oxide]",change in HR after CNO injection (in words),"[1]; DREADDs-expressing animals, 45 min after CNO injection, n=8",significantly decreased
same,MAP after CNO,"[1]; DREADDs-expressing animals, CNO 1.0 mg/kg IP, 104±2.6 mmHg before CNO, n=8",93±1.7 mmHg
same,HR after CNO,"[1]; DREADDs-expressing animals, CNO 1.0 mg/kg IP, 416±7.1 beats/min before CNO, n=8",362±10.5 beats/min
same,change in resting MAP after CNO injection (in words),"[1]; oxytocin neuron activated (DREADDs-expressing) animals, 45 min after CNO injection, n=8",significantly decreased
same,effect of CNO on HR in sham animals without DREADDs expression (in words),"[1]; sham animals, n=7",no effect; also recorded: did not significantly change
same,effect of CNO on MAP in sham animals without DREADDs expression (in words),"[1]; sham animals, n=7",no effect; also recorded: did not significantly change
same,"MAP in DREADDs-expressing group, Day 12","[2]; Day 12 of CIH/H, sham group 117±4.1 mmHg",105±2.6 mmHg
same,"MAP in DREADDs-expressing group, Day 15","[2]; Day 15 of CIH/H, sham group 118±2.6 mmHg",105±3.1 mmHg
same,"MAP in DREADDs-expressing group, Day 18","[2]; Day 18 of CIH/H, sham group 122±1.1 mmHg",104±2.9 mmHg
same,"MAP in DREADDs-expressing group, Day 21","[2]; Day 21 of CIH/H, 104±2.6 mmHg on control days, sham group 120±0.5 mmHg",103±3.0 mmHg
